Values quoted from earlier work, collected in US11071785B2, “Liquid formulation of long-lasting protein conjugate comprising the oxyntomodulin and an immunoglobulin Fc region” (HANMI PHARM, CO., LTD, priority 2012, dated 2021).

Columns and labels:
[1] = when administered for 1 year
[2] = in vivo

Row | Molecule | weight reduction effect [1] | side effects reported [2]
1 | CCCCCCCCCCC[C@@H](C[C@@H]1OC(=O)[C@H]1CCCCCC)OC(=O)[C@H](CC(C)C)NC=O [Orlistat] | about 4 kg | 
2 | Cc1c(C(=O)NN2CCCCC2)nn(-c2ccc(Cl)cc2Cl)c1-c1ccc(Cl)cc1 [Rimonabant] |  | disorders of the central nervous system
3 | CC(C)CC(N(C)C)C1(c2ccc(Cl)cc2)CCC1 (stereo not shown) [Sibutramine] |  | cardiovascular side effects
4 | Contrave |  | cardiovascular side effects
